Results reported in US20250042889A1, “3CLPRO PROTEASE INHIBITOR” (SHANGHAI QILU PHARMACEUTICAL RESEARCH AND DEVELOPMENT …, priority 2021, published 2025).

Molecular target: SARS-COV-2 3CLpro/Mpro protease (Severe acute respiratory syndrome coronavirus 2 (2019-nCoV) (SARS-CoV-2), UniProt P0DTD1)
Assay: Inhibitory effect on SARS-COV-2 3CLpro/Mpro protease by fluorescence resonance energy transfer
Assay type: biochemical
Settings: activity intervals A-D, read-out: IC50 (nM), Inhibition on SARS-CoV-2 3CLpro/Mpro protease

| Compound | IC50 [nM] |
| --- | --- |
| CNc1cncc(C(=O)N2C[C@H](Nc3c(C(=O)N4C[C@@H](C)O[C@@H](C)C4)cc(Br)cc3[N+](=O)[O-])C[C@H]2C(=O)NC2CC2)c1 [Example 388] | 50 to 100 |
| CNc1cncc(C(=O)N2C[C@H](Nc3c(C(=O)N4C[C@@H](C)O[C@@H](C)C4)cc(Br)cc3[N+](=O)[O-])C[C@H]2C(=O)NCc2ccccc2)c1 [Example 390] | 10 to 50 |
| CNc1cncc(C(=O)N2C[C@H](Nc3c(C(=O)N4C[C@@H](C)O[C@@H](C)C4)cc(Br)cc3[N+](=O)[O-])C[C@@H]2C#N)c1 [Example 391] | 50 to 100 |
| CNc1cncc(C(=O)N2C[C@H](Nc3c(C(=O)N4C[C@@H](C)O[C@@H](C)C4)cc(Br)cc3[N+](=O)[O-])C[C@H]2C#Cc2cnn(C)c2)c1 [Example 392] | 50 to 100 |
| CNc1cncc(C(=O)N2C[C@H](Nc3c(C(=O)N4C[C@@H](C)O[C@@H](C)C4)cc(Br)cc3[N+](=O)[O-])C[C@H]2C(=O)NC2CNC(=O)C2)c1 (stereo partly drawn) [Example 393] | 50 to 100 |
| CNc1cncc(C(=O)N2C[C@H](Nc3c(C(=O)N4C[C@@H](C)O[C@@H](C)C4)cc(Br)cc3[N+](=O)[O-])C[C@H]2C(=O)NCCOC)c1 [Example 394] | 50 to 100 |
| CNc1cncc(C(=O)N2C[C@H](Nc3c(C(=O)N4C[C@@H](C)O[C@@H](C)C4)cc(Br)cc3[N+](=O)[O-])C[C@H]2C(=O)NCc2ccncc2)c1 [Example 395] | 50 to 100 |
| CNc1cncc(C(=O)N2C[C@H](Nc3c(C(=O)N4C[C@@H](C)O[C@@H](C)C4)cc(Br)cc3[N+](=O)[O-])C[C@H]2c2nnco2)c1 [Example 396] | 50 to 100 |
| CNc1cncc(C(=O)N2C[C@H](Nc3c(C(=O)N4C[C@@H](C)O[C@@H](C)C4)cc(Br)cc3[N+](=O)[O-])C[C@H]2C(=O)N[C@@H]2CCNC2=O)c1 [Example 397] | 50 to 100 |
| CNc1cncc(C(=O)N2C[C@H](Nc3c(C(=O)N4C[C@@H](C)O[C@@H](C)C4)cc(Br)cc3[N+](=O)[O-])CC[C@H]2C#N)c1 [Example 398] | 10 to 50 |
| CNc1cncc(C(=O)N2C[C@H](Nc3c(C(=O)N4C[C@@H](C)O[C@@H](C)C4)cc(Br)cc3[N+](=O)[O-])C[C@H]2C(=O)Nc2cc3cn(C)nc3cc2Cl)c1 [Example 399] | 50 to 100 |
| CNc1cncc(C(=O)N2C[C@H](Nc3c(C(=O)N4C[C@@H](C)O[C@@H](C)C4)cc(Br)cc3[N+](=O)[O-])C[C@H]2C#Cc2cnoc2)c1 [Example 400] | 100 to 200 |
| CNc1cncc(C(=O)N2C[C@H](Nc3c(C(=O)N4C[C@@H](C)O[C@@H](C)C4)cc(Br)cc3[N+](=O)[O-])C[C@H]2C(=O)Nc2cnn(C)c2)c1 [Example 401] | 50 to 100 |
| CNc1cncc(C(=O)N2C[C@H](Nc3c(C(=O)N4C[C@@H](C)O[C@@H](C)C4)cc(Br)cc3[N+](=O)[O-])C[C@H]2C(=O)N[C@H]2CCOC2)c1 [Example 402] | 50 to 100 |
| CNc1cncc(C(=O)N2C[C@H](Nc3c(C(=O)N4C[C@@H](C)O[C@@H](C)C4)cc(Br)cc3[N+](=O)[O-])CC[C@@H]2C#N)c1 [Example 403] | 50 to 100 |
| CNc1cncc(C(=O)N2C[C@H](Nc3c(C(=O)N4C[C@@H](C)O[C@@H](C)C4)cc(Br)cc3[N+](=O)[O-])C[C@H]2C(=O)N[C@H]2CCN(CCOC)C2)c1 [Example 404] | 100 to 200 |
| CNc1cncc(C(=O)N2C[C@H](Nc3c(C(=O)N4C[C@@H](C)O[C@@H](C)C4)cc(Br)cc3[N+](=O)[O-])[C@@H](OCCOC)C2)c1 [Example 405] | 10 to 50 |
| CNc1cnc(F)c(C(=O)N2C[C@H](Nc3c(C(=O)N4C[C@@H](C)O[C@@H](C)C4)cc(Br)cc3[N+](=O)[O-])[C@@H](OC)C2)c1 [Example 406] | 50 to 100 |
| CNc1cncc(C(=O)N2C[C@H](Nc3c(C(=O)N4C[C@@H](C)O[C@@H](C)C4)cc(Br)cc3[N+](=O)[O-])CC2C(=O)Nc2cc(Cl)n(C)n2)c1 (stereo partly drawn) [Example 407] | 50 to 100 |
| CO[C@H]1CN(C(=O)c2cncc3[nH]cnc23)C[C@@H]1Nc1c(C(=O)N2C[C@@H](C)O[C@@H](C)C2)cc(Br)cc1[N+](=O)[O-] [Example 408] | 10 to 50 |
| CCn1cc(Br)c(NC(=O)[C@@H]2C[C@@H](Nc3c(C(=O)N4C[C@@H](C)O[C@@H](C)C4)cc(Br)cc3[N+](=O)[O-])CN2C(=O)c2cncc(NC)c2)n1 [Example 409] | 50 to 100 |
| CNc1cncc(C(=O)N2C[C@H](Nc3c(C(=O)N4C[C@@H](C)O[C@@H](C)C4)cc(Br)cc3[N+](=O)[O-])C[C@H]2C(=O)Nc2cn(C)c(=O)cc2Cl)c1 [Example 410] | 100 to 200 |
| CNc1cncc(C(=O)N2C[C@H](Nc3c(C(=O)N4CCCC(F)(F)C4)cc(Br)cc3[N+](=O)[O-])C[C@H]2C(=O)Nc2nn(C)cc2Br)c1 [Example 411] | 50 to 100 |

| Compound | IC50 [nM] |
| --- | --- |
| CNc1cncc(C(=O)N2C[C@H](Nc3c(C(=O)N4C[C@@H](C)O[C@@H](C)C4)cc(Br)cc3[N+](=O)[O-])C[C@H]2C(=O)Nc2cn(C)nc2Br)c1 [Example 412] | 50 to 100 |
| CNc1cncc(C(=O)N2C[C@H](Nc3c(C(=O)N4C[C@@H](C)O[C@@H](C)C4)cc(Br)cc3[N+](=O)[O-])C[C@H]2C(=O)NC2CN(CCOC)C2)c1 [Example 413] | 100 to 200 |
| CNc1cncc(C(=O)N2C[C@H](Nc3c(C(=O)N4C[C@@H](C)O[C@@H](C)C4)cc(Br)cc3[N+](=O)[O-])C[C@H]2C#Cc2ccn(C)n2)c1 [Example 414] | 100 to 200 |
| CNc1cncc(C(=O)N2C[C@H](Nc3c(C(=O)N4C[C@@H](C)O[C@@H](C)C4)cc(Br)cc3[N+](=O)[O-])C[C@H]2C(=O)Nc2ccnc(F)c2)c1 [Example 415] | 50 to 100 |
| CNc1cncc(C(=O)N2C[C@H](Nc3c(C(=O)N4C[C@@H](C)O[C@@H](C)C4)cc(Br)cc3[N+](=O)[O-])C[C@H]2C(=O)Nc2ccc(C(F)(F)F)nc2)c1 [Example 416] | 100 to 200 |
| CNc1cncc(C(=O)N2C[C@H](Nc3c(C(=O)N4C[C@@H](C)O[C@@H](C)C4)cc(Br)cc3[N+](=O)[O-])C[C@H]2C(=O)Nc2nn(CC(F)(F)F)cc2Br)c1 [Example 417] | 50 to 100 |
| CNc1cncc(C(=O)N2C[C@H](Nc3c(C(=O)N4C[C@@H](C)O[C@@H](C)C4)cc(Br)cc3[N+](=O)[O-])C[C@H]2C(=O)Nc2nn(CCOC)cc2Br)c1 [Example 418, (2S,4R)-4-((4-bromo-2-((2R,6S)-2,6-dimethylmorpholin-4-carbonyl)-6-nitrophenyl)amino)-1-(5-(methylamino)nicotinoyl)-N-(4-bromo-1-(2-methoxyethyl)-1H-pyrazol-3-yl) pyrrolidine-2-formamide] | 50 to 100 |
| CNc1cncc(C(=O)N2C[C@H](Nc3c(C(=O)N4C[C@@H](C)O[C@@H](C)C4)cc(Br)cc3[N+](=O)[O-])C[C@H]2C(=O)NCc2ccnc(C(F)(F)F)c2)c1 [Example 419] | 50 to 100 |
| CNc1cncc(C(=O)N2C[C@H](Nc3c(C(=O)N4C[C@@H](C)O[C@@H](C)C4)cc(Br)cc3[N+](=O)[O-])C[C@H]2C(=O)Nc2nn(C3CC3)cc2Br)c1 [Example 420] | 50 to 100 |
| CNc1cncc(C(=O)N2C[C@H](Nc3c(C(=O)N4C[C@@H](C)O[C@@H](C)C4)cc(Br)cc3[N+](=O)[O-])C[C@H]2C(=O)N[C@@H]2COC(=O)C2)c1 [Example 421] | 100 to 200 |
| CO[C@H]1CN(C(=O)c2cncc3[nH]ccc23)C[C@@H]1Nc1c(C(=O)N2C[C@@H](C)O[C@@H](C)C2)cc(Br)cc1[N+](=O)[O-] [Example 423] | 10 to 50 |
| CNc1cncc(C(=O)N2C[C@H](Nc3c(C(=O)N4C[C@@H](C)O[C@@H](C)C4)cc(Br)cc3[N+](=O)[O-])C[C@H]2C(=O)Nc2nn(-c3cccnc3)cc2Br)c1 [Example 424] | 50 to 100 |
| CNc1cncc(C(=O)N2C[C@H](Nc3c(C(=O)N4C[C@@H](C)O[C@@H](C)C4)cc(Br)cc3[N+](=O)[O-])C[C@H]2C(=O)Nc2ccc3nn(C)cc3c2Cl)c1 [Example 425] | 100 to 200 |
| CNc1cncc(C(=O)N2C[C@H](Nc3c(C(=O)N4C[C@@H](C)O[C@@H](C)C4)cc(Br)cc3[N+](=O)[O-])C[C@H]2C(=O)NCc2ccnc(F)c2)c1 [Example 426] | 100 to 200 |
| CNc1cncc(C(=O)N2C[C@H](Nc3c(C(=O)N4C[C@@H](C)O[C@@H](C)C4)cc(Br)cc3[N+](=O)[O-])C[C@H]2C(=O)Nc2ccnc(C(F)(F)F)c2)c1 [Example 427, (2S,4R)-4-((4-bromo-2-((2R,6S)-2,6-dimethylmorpholin-4-carbonyl)-6-nitrophenyl)amino)-1-(5-(methylamino)nicotinoyl)-N-(2-(trifluoromethyl)pyridin-4-yl) pyrrolidine-2-formamide] | 100 to 200 |
| CNc1cncc(C(=O)N2C[C@H](Nc3c(C(=O)N4C[C@@H](C)O[C@@H](C)C4)cc(Br)cc3[N+](=O)[O-])C[C@H]2C(=O)Nc2ccnc(C(F)(F)F)n2)c1 [Example 428] | 50 to 100 |
| CNc1cncc(C(=O)N2C[C@H](Nc3c(C(=O)N4C[C@@H](C)O[C@@H](C)C4)cc(Br)cc3[N+](=O)[O-])C[C@H]2C(=O)Nc2cc3nn(C)cc3cc2Cl)c1 [Example 429] | 100 to 200 |
| CNc1cncc(C(=O)N2C[C@H](Nc3c(C(=O)N4C[C@@H](C)O[C@@H](C)C4)cc(Br)cc3[N+](=O)[O-])C[C@H]2C(=O)NCc2ccnc(NC)c2)c1 [Example 430] | 100 to 200 |
| CNc1cncc(C(=O)N2C[C@H](Nc3c(C(=O)N4C[C@@H](C)O[C@@H](C)C4)cc(Br)cc3[N+](=O)[O-])C[C@H]2C(=O)NCc2ccnc(C(F)F)c2)c1 [Example 431] | 50 to 100 |
| CNc1cncc(C(=O)N2C[C@H](Nc3c(C(=O)N4C[C@@H](C)O[C@@H](C)C4)cc(Br)cc3[N+](=O)[O-])C[C@H]2C(=O)NC2C[C@@H](C)O[C@@H](C)C2)c1 (stereo partly drawn) [Example 433] | 100 to 200 |
| CNc1cncc(C(=O)N2C[C@H](Nc3c(C(=O)N4C[C@@H](C)O[C@@H](C)C4)cc(Br)cc3[N+](=O)[O-])C[C@H]2C(=O)N[C@H]2CC[C@@H](OC)C2)c1 [Example 434, (2S,4R)-4-((4-bromo-2-((2R,6S)-2,6-dimethylmorpholin-4-carbonyl)-6-nitrophenyl)amino)-N-((1S,3R)-3-methoxycyclopentyl)-1-(5-(methylamino)nicotinoyl) pyrrolidine-2-formamide] | 100 to 200 |
| CNc1cncc(C(=O)N2C[C@H](Nc3c(C(=O)N4C[C@@H](C)O[C@@H](C)C4)cc(Br)cc3[N+](=O)[O-])C[C@H]2C(=O)Nc2ccc3c(cnn3C)c2Cl)c1 [Example 435] | 50 to 100 |
